Measured values published in patent publication US8383581B2, “Short-chain peptides as parathyroid hormone (PTH) receptor agonist” (Cadila Healthcare Limited, priority 2009, dated 2013).
Where a SMILES comes first, the peptide text is derived from it. [ ]: non-standard residue; d: D form. ξ: configuration not given here. ξBip(2'-Et-4'-OMe) = CCc1cc(OC)ccc1-c1ccc(CC(N)C(=O)O)cc1; Arg(NO2) = N=C(NCCC[C@H](N)C(=O)O)N[N+](=O)[O-]; ξαMePhe(2,6-F2) = CC(N)(Cc1c(F)cccc1F)C(=O)O; ξαMePhe(2-F) = CC(N)(Cc1ccccc1F)C(=O)O; hArg = N=C(N)NCCCC[C@H](N)C(=O)O; Cit = NC(=O)NCCC[C@H](N)C(=O)O; ξhhPhe = NC(CCCc1ccccc1)C(=O)O; Nle = CCCC[C@H](N)C(=O)O; ξαMeP = CC1(C(=O)O)CCCN1; Ac5c = NC1(C(=O)O)CCCC1; Ac3c = NC1(C(=O)O)CC1; Aib = CC(C)(N)C(=O)O

Tested on: ovariectomised (OVX) rats
Test: In vivo anti-osteoporosis activity testing in OVX rat model (serum calcium, phosphate, bone parameters)
Set-up: species or system Female Wistar Rats
Settings: po
From the text: c) In Vivo Anti-Osteoporosis Activity Testing in OVX Rat Model: The ovariectomised (OVX) rats were used to study anti-osteoporosis activity of test compounds (short-chain peptides) in vivo. The OVX rats develop osteopenia due to ovarian hormone deficiency. Osteopenia can be detected as early as 14 days post OVX, increase for the next 100 days and then stabilised (Wronski T. J., et al., Calcif. Tissue Int., 43(3), 1988, 179-183). Detailed Study Protocol to Evaluate the Effects of Anabolic Therapy on Bone Markers and Histomorphometry in OVX Animals: 10 to 11 weeks old Female Wistar Rats (150-200 g) were used. The animals were kept in individually ventilated cages in a room with controlled temperature (23°±3° C.), lighting (12:12 h light-dark cycle) and relative humidity (55±10%). Animals had free access to standard rat chow and water. Protocol for use of animals for conducting this study has been reviewed and approved by Institutional Animal Ethics Committee (IAEC). The animals were marked with picric acid for identification and acclimatized to experimental room conditions for 2 days prior to initiation of the study. For the induction of osteoporosis, rats were bilaterally ovariectomised under anesthesia. For Ovariectomy, Incision was made on dorsa-lateral side near lumbar region of animal. After that, ovary was excised and the veins were tied with ligature before removing ovary to prevent blood loss. Then incision was sutured back with ligature. After Bilateral ovariectomy, animals were allowed to rest for 4 weeks. They were then divided into different groups (n=9) based on their body weight. The groups consisted of a no treatment control, PTH as standard and one or two groups of test compounds (short-chain peptides). The treatment was given for the duration of 6 weeks. At the last day of treatment animals were kept overnight in metabolic cages under fasting for the collection of Urine. Next day, blood was collected after 24 hours of last dosing and animals were sacrificed. Changes in biochemical parameters and bone turnover parameters (Increase in serum Calcium and decrease in Phosphate levels, Acid Phosphatase and TRAP) were evaluated in the urine and serum. After sacrificing, intact femur and tibial bones are removed and cleaned from adherent tissues, muscles and tendons; weighed and collected in formal saline (10% formaldehyde solution). Lumbar vertebra (L5) was excised, carefully cleaned and collected in formal saline. Femur, tibia and Lumbar vertebra-5 (L5) were later processed for histomorphometric evaluation (Zhang L., et al., Tohoku J Exp Med., 1998, 186(2), 131-41; Tanizawa T., et al., Toxicol Lett., 1998, 102, 399-403).

With CCCC[C@H](NC(=O)C(C)(Cc1c(F)cccc1F)NC(=O)[C@H](CCC(N)=O)NC(=O)[C@@H](NC(=O)[C@H](CCC(=O)O)NC(=O)C(C)(C)NC(=O)[C@@H](NC(=O)C(C)(C)N)C(C)C)[C@@H](C)CC)C(=O)N[C@@H](Cc1c[nH]cn1)C(=O)N[C@@H](CCC(N)=O)C(=O)N[C@@H](CCCCNC(=N)N)C(=O)N1CCCC1(C)C(=O)N[C@@H](CCCCN)C(=O)NC(C)(Cc1ccccc1F)C(N)=O (stereo partly drawn) [Seq. ID. 72] (H-[Aib]V[Aib]EIQ[ξαMePhe(2,6-F2)][Nle]HQ[hArg][ξαMeP]K[ξαMePhe(2-F)]-NH2) the “% decrease in serum PO4 Levels (mg/dl) vs control” value (shortened to “% decrease in serum PO4 Levels”) (0.01 mg/kg) was 77% and the “% increase in serum Ca^2+ Levels (mg/dl) vs control” value (from here on “% increase in serum Ca^2+ Levels”) (0.01 mg/kg) was 49%.

With CCCC[C@H](NC(=O)C(C)(Cc1c(F)cccc1F)NC(=O)[C@H](CCC(N)=O)NC(=O)[C@@H](NC(=O)[C@H](CCC(=O)O)NC(=O)C1(NC(=O)[C@@H](NC(=O)C2(N)CCCC2)C(C)C)CCCC1)[C@@H](C)CC)C(=O)N[C@@H](Cc1c[nH]cn1)C(=O)N[C@@H](CCC(N)=O)C(=O)N[C@@H](CCCCNC(=N)N)C(=O)NC(C)(C)C(=O)N[C@@H](CCCNC(N)=O)C(=O)NC(C)(Cc1c(F)cccc1F)C(N)=O (stereo partly drawn) [Seq. ID. 158] (H-[Ac5c]V[Ac5c]EIQ[ξαMePhe(2,6-F2)][Nle]HQ[hArg][Aib][Cit][ξαMePhe(2,6-F2)]-NH2) the “% decrease in serum PO4 Levels” value (0.1 mg/kg) was 82% and the “% increase in serum Ca^2+ Levels” value (0.1 mg/kg) was 100%.

In the case of CCCC[C@H](NC(=O)C(C)(Cc1c(F)cccc1F)NC(=O)[C@H](CCC(N)=O)NC(=O)[C@@H](NC(=O)[C@H](CCC(=O)O)NC(=O)C(C)(C)NC(=O)[C@@H](NC(=O)C1(N)CCCC1)C(C)C)[C@@H](C)CC)C(=O)N[C@@H](Cc1c[nH]cn1)C(=O)N[C@@H](CCC(N)=O)C(=O)N[C@@H](CCCNC(N)=O)C(=O)N[C@@H](C)C(=O)N[C@@H](CCCNC(=N)N[N+](=O)[O-])C(=O)NC(C)(Cc1c(F)cccc1F)C(N)=O (stereo partly drawn) [Seq. ID. 407] (H-[Ac5c]V[Aib]EIQ[ξαMePhe(2,6-F2)][Nle]HQ[Cit]A[Arg(NO2)][ξαMePhe(2,6-F2)]-NH2), the “% decrease in serum PO4 Levels” value (0.03 mg/kg) is reported as 81% and the “% increase in serum Ca^2+ Levels” value (0.03 mg/kg) is reported as 77%.

For CCCC[C@H](NC(=O)[C@H](CC(C)C)NC(=O)[C@H](CCC(N)=O)NC(=O)[C@@H](NC(=O)[C@H](CCC(=O)O)NC(=O)C(C)(C)NC(=O)[C@@H](NC(=O)C(C)(C)N)C(C)C)[C@@H](C)CC)C(=O)N[C@@H](Cc1c[nH]cn1)C(=O)N[C@@H](CCC(N)=O)C(=O)NC(C)(Cc1c(F)cccc1F)C(=O)N[C@@H](C)C(=O)NC(C)(C)C(=O)NC(Cc1ccc(-c2ccc(OC)cc2CC)cc1)C(=O)NC(CCCc1ccccc1)C(N)=O (stereo partly drawn) [Seq. ID. 798] (H-[Aib]V[Aib]EIQL[Nle]HQ[ξαMePhe(2,6-F2)]A[Aib][ξBip(2'-Et-4'-OMe)][ξhhPhe]-NH2), the “% decrease in serum PO4 Levels” value (5 mg/kg) was 82% and the “% increase in serum Ca^2+ Levels” value (5 mg/kg) was 88%.

For CCCC[C@H](NC(=O)C(C)(Cc1ccccc1F)NC(=O)[C@H](CCC(N)=O)NC(=O)[C@@H](NC(=O)[C@H](CCC(=O)O)NC(=O)C(C)(C)NC(=O)[C@@H](NC(=O)C1(N)CCCC1)C(C)C)[C@@H](C)CC)C(=O)N[C@@H](Cc1c[nH]cn1)C(=O)N[C@@H](CCC(N)=O)C(=O)N[C@@H](CCCCNC(=N)N)C(=O)NC(C)(C)C(=O)NC(C)(Cc1c(F)cccc1F)C(=O)NC(C)(Cc1ccccc1F)C(N)=O (stereo partly drawn) [Seq. ID. 210] (H-[Ac5c]V[Aib]EIQ[ξαMePhe(2-F)][Nle]HQ[hArg][Aib][ξαMePhe(2,6-F2)][ξαMePhe(2-F)]-NH2), the “% decrease in serum PO4 Levels” value (1 mg/kg) was 99% and the “% increase in serum Ca^2+ Levels” value (1 mg/kg) was 96%.

In the case of CCc1cc(OC)ccc1-c1ccc(CC(NC(=O)[C@H](CCCCN)NC(=O)[C@H](C)NC(=O)[C@H](CCCCNC(=N)N)NC(=O)[C@H](CCC(N)=O)NC(=O)[C@H](Cc2c[nH]cn2)NC(=O)[C@H](CCSC)NC(=O)[C@H](CC(C)C)NC(=O)[C@H](CCC(N)=O)NC(=O)[C@@H](NC(=O)[C@H](CCC(=O)O)NC(=O)C2(NC(=O)[C@@H](NC(=O)C(C)(C)N)C(C)C)CC2)[C@@H](C)CC)C(=O)NC(CCCc2ccccc2)C(N)=O)cc1 (stereo partly drawn) [Seq. ID. 607] (H-[Aib]V[Ac3c]EIQLMHQ[hArg]AK[ξBip(2'-Et-4'-OMe)][ξhhPhe]-NH2), the “% decrease in serum PO4 Levels” value (0.01 mg/kg) is reported as 88% and the “% increase in serum Ca^2+ Levels” value (0.01 mg/kg) is reported as 78%.
